These results are taken from patent US3956510A, “Certain mixed antibacterials” (priority 1974, dated 1976).

Assay [1] has as its system Pseudomonas aeruginosa. The experiment in a line: bacteriostatic activity / minimum inhibitory concentration against Pseudomonas aeruginosa. The class given is cell-based.
Assay [2] has as its system Pseudomonas aeruginosa. As to conditions: alone; is reported; cited from earlier work.
Another assay relates to bacteria. As to conditions: cited from earlier work.

Regarding `Oc1cc(Cl)ccc1Oc1ccc(Cl)cc1Cl` [2,4,4'-trichloro-2'-hydroxydiphenyl ether], the “activity in the presence of a surfactant” value in the assay on Pseudomonas aeruginosa [1] (in the presence of a surfactant such as soap) is “no practical activity is demonstrable”. The minimum inhibitory concentration result in the assay with Pseudomonas aeruginosa [2] was “greater than 300 ppm”.
With `O=C(Nc1ccc(Br)cc1)c1cc(Br)cc(Br)c1O` [3,4',5-tribromo salicylanilide], the bacteriostatic activity with Pseudomonas aeruginosa [1] (alone, under the most ideal conditions) is 75 ppm; with Pseudomonas aeruginosa [1] (with 2% soap, based on active ingredient), 160 ppm.
Take benzalkonium chloride: the “bactericidal effect on dried bacteria coated with a greasy film” value with bacteria (dried bacteria coated with a greasy film, Rahm 1946) is “can survive many hours of contact”. Further, the bactericidal effect entry with bacteria (ordinarily) is on record as “ordinarily kills bacteria”.
